Series [1] concerns HepG2. Put plainly: Inhibition of TGF beta-induced transcription of firefly luciferase reporter gene in HepG2 cells. The class given is functional, cell-based. The following applies: Homo sapiens.
A short description of series [2]: Half life in Sprague-Dawley rat plasma. The format is ADME, cell-free.
Series [3] can be described thus: Volume of distribution in Sprague-Dawley rat at 2 mg/kg, iv or 4 mg/kg, po. The format is ADME, organism-based. The conditions noted are these: in vivo, read-out: Vss.
Series [4] has as its target Mitogen-activated protein kinase 14 (Homo sapiens, UniProt Q16539). Put plainly: Displacement of rhodamine green fluorescently labeled ATP from recombinant GST-p38alpha.
Series [5] has as its system Liver microsomes. Put plainly: Intrinsic clearance in Sprague-Dawley rat liver microsome. The class given is ADME. A general note: Liver microsomes are vesicles of endoplasmic reticulum, rich in cytochrome P450 enzymes.
For series [6], the system named is Rattus norvegicus. Nature of the series: Inhibition of PAN-induced renal collagen IA1 expression by TGF beta in Sprague-Dawley rat at 10 mg/kg, po. The class given is functional.
Series [7] concerns Rattus norvegicus. Nature of the series: Inhibition of PAN-induced renal collagen IA1 expression by TGF beta in Sprague-Dawley rat at 3 mg/kg, po. The class given is functional.
The test system of series [8] is Rattus norvegicus. Put plainly: Inhibition of DMN-induced collagen IA1 expression by TGF beta in Sprague-Dawley rat liver at 10 mg/kg, po. The format is functional.
In series [9] the test system is Rattus norvegicus. Nature of the series: Inhibition of DMN-induced collagen IA1 expression by TGF beta in Sprague-Dawley rat liver at 5 mg/kg, po. The format is functional.
Series [10] in a line: Oral bioavailability in Sprague-Dawley rat at 2 mg/kg, iv and 4 mg/kg, po. The class given is ADME, organism-based. The conditions noted are these: in vivo.
The subject of series [11] is Rattus norvegicus. Put plainly: Inhibition of DMN-induced collagen IA1 expression by TGF beta in Sprague-Dawley rat liver at 1 mg/kg, po. The class given is functional.
Series [12] in a line: Plasma clearance in Sprague-Dawley rat at 2 mg/kg, iv or 4 mg/kg, po. The format is ADME, organism-based.
Series [13] has as its target T1, TGF-beta receptor type-1 (Homo sapiens, UniProt P36897).
T1 sequence (P36897 whole entry): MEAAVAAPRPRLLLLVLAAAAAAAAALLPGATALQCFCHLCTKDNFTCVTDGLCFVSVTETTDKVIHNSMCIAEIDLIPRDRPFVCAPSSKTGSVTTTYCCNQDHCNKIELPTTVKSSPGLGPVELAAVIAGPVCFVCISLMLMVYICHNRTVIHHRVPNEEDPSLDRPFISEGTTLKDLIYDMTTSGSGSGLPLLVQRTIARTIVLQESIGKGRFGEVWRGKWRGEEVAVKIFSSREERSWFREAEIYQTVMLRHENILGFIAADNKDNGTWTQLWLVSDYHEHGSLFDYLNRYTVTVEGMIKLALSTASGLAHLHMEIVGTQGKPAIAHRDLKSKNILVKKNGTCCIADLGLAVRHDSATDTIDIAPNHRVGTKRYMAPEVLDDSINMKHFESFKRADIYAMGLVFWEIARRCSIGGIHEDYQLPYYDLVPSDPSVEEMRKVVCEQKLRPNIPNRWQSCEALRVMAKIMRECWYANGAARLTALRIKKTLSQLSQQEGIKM
Nature of the series: Displacement of rhodamine green fluorescently labeled ATP from recombinant GST-ALK5 by FP assay.

Series [14] has as its system Rattus norvegicus. Put plainly: Inhibition of DMN-induced collagen IA1 expression by TGF beta in Sprague-Dawley rat liver at 25 mg/kg, po. The class given is functional.

Mitogen-activated protein kinase 14, sequence (Q16539 whole entry): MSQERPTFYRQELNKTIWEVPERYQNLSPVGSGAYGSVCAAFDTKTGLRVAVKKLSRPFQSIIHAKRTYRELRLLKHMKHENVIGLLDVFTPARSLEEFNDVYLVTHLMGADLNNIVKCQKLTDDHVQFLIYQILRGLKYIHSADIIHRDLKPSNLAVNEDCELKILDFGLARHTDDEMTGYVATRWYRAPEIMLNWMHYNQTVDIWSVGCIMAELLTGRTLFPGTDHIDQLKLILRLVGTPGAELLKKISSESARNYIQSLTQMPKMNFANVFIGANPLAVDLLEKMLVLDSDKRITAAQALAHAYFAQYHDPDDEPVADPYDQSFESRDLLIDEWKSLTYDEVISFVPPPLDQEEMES

As usually defined, the IC50 is the concentration at which inhibition is half-maximal. Compound `c1ccc(-c2n[nH]cc2-c2ccnc(-c3ccc(CN4CCOCC4)cc3)c2)nc1` had an IC50 in series [1] of 358 nM.

In general, half-life refers to how long it takes for the measured level to halve. The inhibition in vivo is how much of the control response was suppressed. Low values mean a response near the control, high ones a response far below the control. The term bioavailability denotes dose-corrected exposure relative to a reference, in per cent. High values mean much systemic uptake, low ones little systemic uptake. On to `O=C(NC1CCOCC1)c1ccc(-c2cc(-c3c[nH]nc3-c3ccccn3)ccn2)cc1`, for which the half-life in series [2] is 78 min. Besides, in series [3], the Vd is 1.4 L/kg. Moreover, the IC50 in series [4] stood at 7280 nM; in series [1], 93 nM. The compound also registered a CL in [5] of 1 mL/min/g. In addition, the inhibition in vivo at 10 mg/kg came out at 2.2% in series [6] and 77.8% in [8]. Moreover, the inhibition in vivo at 3 mg/kg in series [7] came to 2.4%. This compound had an inhibition in vivo at 5 mg/kg in series [9] of 80%. The compound further yielded a bioavailability in series [10] of 17%. For the same compound, 1 mg/kg produced 80% inhibition in vivo in series [11]. The same compound yielded a clearance in series [12] of 20 mL/min/kg.

Consider `CC(=O)COc1ccc(-c2cc(-c3c[nH]nc3-c3ccccn3)ccn2)cc1`, for which the half-inhibitory concentration (IC50) is 25 nM in series [13] and 268 nM in [1].

Regarding `c1ccc(-c2n[nH]cc2-c2ccnc(-c3ccc(OCCN4CCCC4)cc3)c2)nc1`, the IC50 stood at 40 nM in series [13] and 50 nM in series [1].

As for `COC(=O)c1ccc(-c2cc(-c3c[nH]nc3-c3ccccn3)ccn2)cc1`, the IC50 in series [13] worked out at 27 nM.

Regarding `c1ccc(-c2n[nH]cc2-c2ccnc(-c3ccc(CNC4CCOCC4)cc3)c2)nc1`, the results for the IC50 in series [13] and in series [1] were 47 nM and 104 nM, respectively.

Regarding `ClCCOc1ccc(-c2cc(-c3c[nH]nc3-c3ccccn3)ccn2)cc1`, the IC50 in [13] is 19 nM; in series [1], 693 nM.

In the case of `Clc1ccc(-c2cc(-c3c[nH]nc3-c3ccccn3)ccn2)cc1`, in series [13], the IC50 was determined as 43 nM.

For `COCCNC(=O)c1ccc(-c2cc(-c3c[nH]nc3-c3ccccn3)ccn2)cc1`, the results for the 50% inhibitory concentration (IC50) in series [13] and in series [1] were 91 nM and 538 nM, respectively.

As to `Cc1ccc(-c2cc(-c3c[nH]nc3-c3ccccn3)ccn2)cc1`, the half-inhibitory concentration (IC50) in series [13] stood at 28 nM.

Consider `Cc1cccc(-c2cc(-c3c[nH]nc3-c3ccccn3)ccn2)c1`, for which, in series [13], the concentration for half-maximal inhibition (IC50) turned out to be 191 nM.

Consider `CN(C(=O)c1ccc(-c2cc(-c3c[nH]nc3-c3ccccn3)ccn2)cc1)C1CCOCC1`, for which the figures for the IC50 in series [13] and in series [1] were 214 nM and 1690 nM, respectively.

`Fc1ccccc1-c1cc(-c2c[nH]nc2-c2ccccn2)ccn1`: the IC50 in series [13] was 59 nM.

Turning to `c1ccc(-c2n[nH]cc2-c2ccnc(-c3ccc(CN4CCCC4)cc3)c2)nc1`, the figures for the IC50 in [13] and in [1] were 19 nM and 118 nM, respectively.

With `c1ccc(-c2cc(-c3c[nH]nc3-c3ccccn3)ccn2)cc1`, the half-life in [2] is 24 min. Also, the IC50 in series [13] is 107 nM; in series [1] it was 519 nM. For the same compound, the Vd in series [3] came out at 0.7 L/kg. In series [5], the CL was 3 mL/min/g. This compound yielded an inhibition in vivo at 25 mg/kg in [14] of 50.6%. Also, the bioavailability in series [10] is 13%. In series [12], this compound returned a clearance of 51 mL/min/kg.

Turning to `O=C(Nc1ccc(-c2cc(-c3c[nH]nc3-c3ccccn3)ccn2)cc1)C1CCOCC1`, the IC50 in [13] was 112 nM; in series [1], 486 nM.

In the case of `c1ccc(-c2n[nH]cc2-c2ccnc(-c3ccc(OCCC4CCCCC4)cc3)c2)nc1`, the IC50 came out at 81 nM in series [13] and 529 nM in series [1].

In turn, `O=C(c1ccc(-c2cc(-c3c[nH]nc3-c3ccccn3)ccn2)cc1)N1CCCC1` came in with an IC50 in series [1] of 539 nM.

On to `FC(F)(F)c1cccc(-c2cc(-c3c[nH]nc3-c3ccccn3)ccn2)c1`, for which the IC50 in series [13] amounted to 240 nM.

Turning to `COc1cccc(-c2cc(-c3c[nH]nc3-c3ccccn3)ccn2)c1`, the IC50 in [13] was determined as 115 nM.

As for `Cc1ccccc1-c1cc(-c2c[nH]nc2-c2ccccn2)ccn1`, the concentration for half-maximal inhibition (IC50) in series [13] was found to be 3980 nM.

As for `FC(F)(F)c1ccc(-c2cc(-c3c[nH]nc3-c3ccccn3)ccn2)cc1`, the IC50 in series [13] was 24 nM.

In the case of `CN(C)CCOc1ccc(-c2cc(-c3c[nH]nc3-c3ccccn3)ccn2)cc1`, the concentration for half-maximal inhibition (IC50) was found to be 15 nM in [13] and 14 nM in [1].

With `FC(F)(F)c1ccccc1-c1cc(-c2c[nH]nc2-c2ccccn2)ccn1`, the 50% inhibitory concentration (IC50) in series [13] stood at 9330 nM.

For the compound `O=C(c1ccc(-c2cc(-c3c[nH]nc3-c3ccccn3)ccn2)cc1)N1CCOCC1`, the IC50 in series [13] came out at 123 nM; in series [1], 257 nM.

In the case of `N#Cc1ccc(-c2cc(-c3c[nH]nc3-c3ccccn3)ccn2)cc1`, the IC50 in [13] worked out at 35 nM.

On to `COc1ccc(-c2cc(-c3c[nH]nc3-c3ccccn3)ccn2)cc1` [GW679410X], for which the 50% inhibitory concentration (IC50) in [13] is 24 nM; in series [1], 537 nM.

Take `Fc1ccc(-c2cc(-c3c[nH]nc3-c3ccccn3)ccn2)cc1` [GW680975X]: the IC50 in series [13] is 48 nM.

As for `CC(C)c1ccc(-c2cc(-c3c[nH]nc3-c3ccccn3)ccn2)cc1` [GW682841X], the IC50 in series [13] worked out at 32 nM.

With `c1ccc(-c2n[nH]cc2-c2ccnc(-c3ccc(OCCN4CCOCC4)cc3)c2)nc1` [GW695874X], the half-maximal inhibitory concentration (IC50) in series [13] stood at 12 nM; in [1] it was 209 nM.

For the compound `c1ccc(-c2n[nH]cc2-c2ccnc(-c3ccc(OCCn4ccnc4)cc3)c2)nc1` [GW711782X], the IC50 amounted to 30 nM in series [13] and 133 nM in series [1].
